Source: patent publication US20040091517A1, “Use of polyphospate as a tooth erosion inhibitors in acidic compositions” (priority 2000, published 2004)
“And” between values parts separate entries of the source, which are not always exact repeats. Equal values may be shown once.

Test: in-vitro planometry/profilometry test of enamel erosion by acidic solutions and beverages
Parameters: species or system human
Method: Test solutions were prepared by dissolving the ingredients in water as described in the Table. For test solutions containing sodium polyphosphate, the average chain length (n) of the polyphosphate polymer used was 17. All solutions were prepared to give a pH of 3.0 and a titratable acidity of 0.5% w/v CAMH (citric acid monohydrate). Where calcium was added, the molar ratio of calcium: citric acid used was about 0.08. The erosive effect of the solutions was evaluated using in-vitro planometry tests in which flat dental enamel sections were exposed to test solutions at a temperature of 37° C. for 4 hours. […] Erosive effect was evaluated by physical measurement of the depth of enamel (in microns) lost during the procedure.
A. Solutions were prepared containing approximately equivalent molar concentrations of phosphate groups dissolved in 0.3% w/v citric acid monohydrate (CAMH), pH 3.4. pH was adjusted by the addition of NaOH as required. […] Additionally sodium polyphosphate n≈4, 7, 28 was from Chemische Fabrik Budenheim, Budenheim, Germany, and sodium polyphosphate n≈12, 21, 25 was from Rhodia Ltd. Widnes, Cheshire, UK. Enamel specimens were placed in the solutions with stirring at 37 C for 4 hours and the amount of enamel lost from the surface during that time measured by profilometry as described previously.
The acidulant employed was 0.3% w/v citric acid monohydrate. Citric acid is one of the most commonly employed food acidulants. Adjustment of pH where required was achieved by the addition of NaOH.

With `O=C([O-])[O-].[Ca+2]` [Ca, calcium carbonate] the “4 Hr Enamel Loss” value (Ca 80 ppm alone, no phosphate salt, no gum, 0.5% w/v CAMH, pH 3.0) was 41.1 microns and 80 microns, the “4 Hr Enamel Loss” value (Ca 80 ppm alone, no phosphate salt, 0.3% w/v CAMH, pH 3.4) was 42.8 microns and the “4 Hr Enamel Loss” value (Ca 100 ppm alone, no polyphosphate, 0.3% w/v CAMH, pH 3.2) was 31.5 microns. For the same compound, the “4 Hr Enamel Loss” value (Ca 200 ppm alone, no polyphosphate, 0.3% w/v CAMH, pH 3.2) was 25.2 microns.

With `O=P([O-])([O-])OP(=O)([O-])OP(=O)([O-])[O-].[Na+].[Na+].[Na+].[Na+].[Na+]` [Penta-sodium triphosphate] the “4 Hr Enamel Loss” value (phosphate salt 0.61 g/L, Ca 80 ppm, 0.5% w/v CAMH, pH 3.0, listed as Penta sodium triphosphate, triphosphate) was 20.09 microns, the “4 Hr Enamel Loss” value (phosphate salt 0.61 g/L, Ca 80 ppm, 0.5% w/v CAMH, pH 3.0, listed as sodium tri-phosphate, triphosphate) was “about 20 microns” and the “4 Hr Enamel Loss” value (phosphate salt 0.61 g/L, Ca 80 ppm, 0.5% w/v CAMH, pH 3.0, triphosphate) was 20.1 microns. The “4 Hr Enamel Loss” value (phosphate salt 0.61 g/L, no Ca, 0.3% w/v CAMH, pH 3.4) was 29.6 microns.

For `O=P(O)(O)O` [Sodium phosphate], the “4 Hr Enamel Loss” value (phosphate salt 0.65 g/L, Ca 80 ppm, 0.5% w/v CAMH, pH 3.0) was 33.4 microns and 33.39 microns, the “4 Hr Enamel Loss” value (phosphate salt 0.65 g/L, Ca 80 ppm, 0.5% w/v CAMH, pH 3.0, listed as sodium phosphate) was “about 33 microns” and the “4 Hr Enamel Loss” value (phosphate salt 0.65 g/L, no Ca, 0.3% w/v CAMH, pH 3.4) was 34.05 microns.

With `O=P([O-])([O-])OP(=O)([O-])[O-].[Na+].[Na+].[Na+].[Na+]` [Tetra-sodium pyrophosphate] the “4 Hr Enamel Loss” value (phosphate salt 1.08 g/L, Ca 80 ppm, 0.5% w/v CAMH, pH 3.0) was 28.6 microns, the “4 Hr Enamel Loss” value (phosphate salt 1.08 g/L, Ca 80 ppm, 0.5% w/v CAMH, pH 3.0, listed as Tetra sodium pyrophosphate) was 28.63 microns and the “4 Hr Enamel Loss” value (phosphate salt 1.08 g/L, Ca 80 ppm, 0.5% w/v CAMH, pH 3.0, listed as sodium pyrophosphate) was “about 29 microns”. For the same compound, the “4 Hr Enamel Loss” value (phosphate salt 1.08 g/L, no Ca, 0.3% w/v CAMH, pH 3.4) was 34.9 microns.
